Tested on: Orientia tsutsugamushi
Test: Antimicrobial activity against doxycyclin-resistant Orientia tsutsugamushi in patient of scrub typhus assessed as recovery from infection
Assay type: functional

| Structure (SMILES) | Activity [%] |
| --- | --- |
| C[C@H]1c2cccc(O)c2C(=O)C2=C(O)[C@]3(O)C(=O)C(C(N)=O)=C(O)[C@@H](N(C)C)[C@@H]3[C@@H](O)[C@@H]21.O [DOXYCYCLINE] | 97.8 |
| CC[C@H]1OC(=O)[C@H](C)C(=O)[C@H](C)[C@@H](O[C@@H]2O[C@H](C)C[C@H](N(C)C)[C@H]2O)[C@](C)(OC)C[C@@H](C)C(=O)[C@H](C)[C@H]2N(CCCCn3cnc(-c4cccnc4)c3)C(=O)O[C@]12C [TELITHROMYCIN] | 100 |

From ChEMBL document CHEMBL1143852, “Controlled trial of a 5-day course of telithromycin versus doxycycline for treatment of mild to moderate scrub typhus” (2007)
